Laboratory results taken from PubChem BioAssay (NCI).
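Interpolation was linear, between the two tested concentrations surrounding the appropriate level; five concentrations were tested over 48 hours in 96-well plates. GI50 is the concentration that inhibits growth by half. At the TGI there is no net growth.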

Key:
Assay in all cases: NCI-60 cell line screen, 48 h
SF-268 CNS = test system: SF-268 CNS
SK-OV-3 ovarian = test system: SK-OV-3 ovarian
HOP-92 NSCLC = test system: HOP-92 NSCLC
HCC-2998 colon = test system: HCC-2998 colon
MALME-3M melanoma = test system: MALME-3M melanoma
NCI-H522 lung = test system: NCI-H522 lung
SK-MEL-28 melanoma = test system: SK-MEL-28 melanoma
SNB-75 CNS = test system: SNB-75 CNS
PC-3 prostate = test system: PC-3 prostate
SF-539 CNS = test system: SF-539 CNS
A498 renal = test system: A498 renal
SN12C renal = test system: SN12C renal
HCT-116 colon = test system: HCT-116 colon
NCI-H460 lung = test system: NCI-H460 lung
CCRF-CEM leukemia = test system: CCRF-CEM leukemia
HOP-62 NSCLC = test system: HOP-62 NSCLC
NCI/ADR-RES ovarian = test system: NCI/ADR-RES ovarian
M14 melanoma = test system: M14 melanoma
IGROV1 ovarian = test system: IGROV1 ovarian
CAKI-1 renal = test system: CAKI-1 renal
NCI-H23 lung = test system: NCI-H23 lung
UACC-257 melanoma = test system: UACC-257 melanoma
A549 NSCLC = test system: A549 NSCLC
UO-31 renal = test system: UO-31 renal
SF-295 CNS = test system: SF-295 CNS
SK-MEL-2 melanoma = test system: SK-MEL-2 melanoma
TK-10 renal = test system: TK-10 renal
EKVX NSCLC = test system: EKVX NSCLC
HCT-15 colon = test system: HCT-15 colon
OVCAR-5 ovarian = test system: OVCAR-5 ovarian
786-0 renal = test system: 786-0 renal
ACHN renal = test system: ACHN renal
SK-MEL-5 melanoma = test system: SK-MEL-5 melanoma
SW-620 colon = test system: SW-620 colon
OVCAR-4 ovarian = test system: OVCAR-4 ovarian
MDA-MB-435 = test system: MDA-MB-435
UACC-62 melanoma = test system: UACC-62 melanoma
SNB-19 CNS = test system: SNB-19 CNS
BT-549 breast = test system: BT-549 breast
DU-145 prostate = test system: DU-145 prostate
MOLT-4 leukemia = test system: MOLT-4 leukemia
NCI-H226 lung = test system: NCI-H226 lung
OVCAR-8 ovarian = test system: OVCAR-8 ovarian
HT29 colon = test system: HT29 colon
RXF 393 renal = test system: RXF 393 renal
HL-60(TB) leukemia = test system: HL-60(TB) leukemia
KM12 colon = test system: KM12 colon

Question: How did the GI50 (SF-268 CNS) turn out when `COc1ccc2nc3ccccc3c(NCc3ccc(Cl)cc3)c2c1` was run?
Answer: Its GI50 is 1980 nM.

Question: And the TGI (SF-268 CNS)?
Answer: Its TGI is 4610 nM.

Question: And the GI50 (SK-OV-3 ovarian)?
Answer: The GI50 was 3190 nM.

Question: What about the TGI (SK-OV-3 ovarian) of the same compound?
Answer: Its TGI is 9800 nM.

Question: And the GI50 (HOP-92 NSCLC)?
Answer: The GI50 was 1480 nM.

Question: And the TGI (HOP-92 NSCLC)?
Answer: The TGI was 3350 nM.

Question: And the GI50 (HCC-2998 colon)?
Answer: Its GI50 is 1760 nM.

Question: What about the TGI (HCC-2998 colon) of the same compound?
Answer: Its TGI is 3240 nM.

Question: What about the GI50 (MALME-3M melanoma) of the same compound?
Answer: The GI50 was 1810 nM.

Question: And the TGI (MALME-3M melanoma)?
Answer: The TGI was 3390 nM.

Question: What about the GI50 (NCI-H522 lung) of the same compound?
Answer: The GI50 was 2020 nM.

Question: And the TGI (NCI-H522 lung)?
Answer: The TGI was 5080 nM.

Question: What about the GI50 (SK-MEL-28 melanoma) of the same compound?
Answer: The GI50 was 1780 nM.

Question: What about the TGI (SK-MEL-28 melanoma) of the same compound?
Answer: The TGI was 3360 nM.

Question: And the GI50 (SNB-75 CNS)?
Answer: The GI50 was 1270 nM.

Question: And the TGI (SNB-75 CNS)?
Answer: Its TGI is 2620 nM.

Question: What about the GI50 (PC-3 prostate) of the same compound?
Answer: Its GI50 is 1790 nM.

Question: And the TGI (PC-3 prostate)?
Answer: Its TGI is 4240 nM.

Question: What about the GI50 (SF-539 CNS) of the same compound?
Answer: Its GI50 is 1710 nM.

Question: And the TGI (SF-539 CNS)?
Answer: Its TGI is 3240 nM.

Question: What about the GI50 (A498 renal) of the same compound?
Answer: Its GI50 is 1440 nM.

Question: And the TGI (A498 renal)?
Answer: The TGI was 2770 nM.

Question: What about the GI50 (SN12C renal) of the same compound?
Answer: The GI50 was 1730 nM.

Question: What about the TGI (SN12C renal) of the same compound?
Answer: Its TGI is 3860 nM.

Question: And the GI50 (HCT-116 colon)?
Answer: Its GI50 is 1790 nM.

Question: What about the TGI (HCT-116 colon) of the same compound?
Answer: The TGI was 4140 nM.

Question: What about the GI50 (NCI-H460 lung) of the same compound?
Answer: Its GI50 is 1880 nM.

Question: What about the TGI (NCI-H460 lung) of the same compound?
Answer: Its TGI is 3690 nM.

Question: And the GI50 (CCRF-CEM leukemia)?
Answer: Its GI50 is 2660 nM.

Question: And the TGI (CCRF-CEM leukemia)?
Answer: The TGI was 9480 nM.

Question: And the GI50 (HOP-62 NSCLC)?
Answer: Its GI50 is 1720 nM.

Question: What about the TGI (HOP-62 NSCLC) of the same compound?
Answer: Its TGI is 3440 nM.

Question: And the GI50 (NCI/ADR-RES ovarian)?
Answer: Its GI50 is 1800 nM.

Question: And the TGI (NCI/ADR-RES ovarian)?
Answer: Its TGI is 3970 nM.

Question: And the GI50 (M14 melanoma)?
Answer: The GI50 was 1810 nM.

Question: What about the TGI (M14 melanoma) of the same compound?
Answer: Its TGI is 3470 nM.

Question: And the GI50 (IGROV1 ovarian)?
Answer: The GI50 was 2400 nM.

Question: What about the TGI (IGROV1 ovarian) of the same compound?
Answer: The TGI was 6650 nM.

Question: And the GI50 (CAKI-1 renal)?
Answer: Its GI50 is 1690 nM.

Question: And the TGI (CAKI-1 renal)?
Answer: The TGI was 3230 nM.

Question: What about the GI50 (NCI-H23 lung) of the same compound?
Answer: Its GI50 is 1860 nM.

Question: What about the TGI (NCI-H23 lung) of the same compound?
Answer: Its TGI is 4520 nM.

Question: And the GI50 (UACC-257 melanoma)?
Answer: Its GI50 is 2030 nM.

Question: What about the TGI (UACC-257 melanoma) of the same compound?
Answer: Its TGI is 4570 nM.

Question: And the GI50 (A549 NSCLC)?
Answer: The GI50 was 2060 nM.

Question: What about the TGI (A549 NSCLC) of the same compound?
Answer: Its TGI is 4890 nM.

Question: And the GI50 (UO-31 renal)?
Answer: The GI50 was 1340 nM.

Question: And the TGI (UO-31 renal)?
Answer: Its TGI is 2750 nM.

Question: What about the GI50 (SF-295 CNS) of the same compound?
Answer: The GI50 was 1500 nM.

Question: And the TGI (SF-295 CNS)?
Answer: The TGI was 2930 nM.

Question: What about the GI50 (SK-MEL-2 melanoma) of the same compound?
Answer: The GI50 was 1930 nM.

Question: What about the TGI (SK-MEL-2 melanoma) of the same compound?
Answer: Its TGI is 3700 nM.

Question: What about the GI50 (TK-10 renal) of the same compound?
Answer: Its GI50 is 1960 nM.

Question: And the TGI (TK-10 renal)?
Answer: The TGI was 3840 nM.

Question: What about the GI50 (EKVX NSCLC) of the same compound?
Answer: The GI50 was 2300 nM.

Question: And the TGI (EKVX NSCLC)?
Answer: Its TGI is 5920 nM.

Question: And the GI50 (HCT-15 colon)?
Answer: Its GI50 is 1730 nM.

Question: And the TGI (HCT-15 colon)?
Answer: Its TGI is 3880 nM.

Question: And the GI50 (OVCAR-5 ovarian)?
Answer: The GI50 was 1910 nM.

Question: What about the TGI (OVCAR-5 ovarian) of the same compound?
Answer: The TGI was 4900 nM.

Question: What about the GI50 (786-0 renal) of the same compound?
Answer: Its GI50 is 1730 nM.

Question: What about the TGI (786-0 renal) of the same compound?
Answer: The TGI was 3200 nM.

Question: What about the GI50 (ACHN renal) of the same compound?
Answer: Its GI50 is 1550 nM.

Question: What about the TGI (ACHN renal) of the same compound?
Answer: Its TGI is 2890 nM.

Question: What about the GI50 (SK-MEL-5 melanoma) of the same compound?
Answer: Its GI50 is 1760 nM.

Question: And the TGI (SK-MEL-5 melanoma)?
Answer: Its TGI is 3190 nM.

Question: And the GI50 (SW-620 colon)?
Answer: The GI50 was 1650 nM.

Question: And the TGI (SW-620 colon)?
Answer: Its TGI is 3470 nM.

Question: What about the GI50 (OVCAR-4 ovarian) of the same compound?
Answer: The GI50 was 2130 nM.

Question: What about the TGI (OVCAR-4 ovarian) of the same compound?
Answer: Its TGI is 6350 nM.

Question: And the GI50 (MDA-MB-435)?
Answer: Its GI50 is 1500 nM.

Question: What about the TGI (MDA-MB-435) of the same compound?
Answer: Its TGI is 3060 nM.

Question: And the GI50 (UACC-62 melanoma)?
Answer: The GI50 was 1660 nM.

Question: And the TGI (UACC-62 melanoma)?
Answer: The TGI was 3210 nM.

Question: What about the GI50 (SNB-19 CNS) of the same compound?
Answer: Its GI50 is 2260 nM.

Question: What about the TGI (SNB-19 CNS) of the same compound?
Answer: The TGI was 6350 nM.

Question: And the GI50 (BT-549 breast)?
Answer: The GI50 was 5640 nM.

Question: What about the TGI (BT-549 breast) of the same compound?
Answer: Its TGI is 20800 nM.

Question: What about the GI50 (DU-145 prostate) of the same compound?
Answer: Its GI50 is 2650 nM.

Question: And the TGI (DU-145 prostate)?
Answer: Its TGI is 7330 nM.

Question: And the GI50 (MOLT-4 leukemia)?
Answer: The GI50 was 3190 nM.

Question: And the TGI (MOLT-4 leukemia)?
Answer: Its TGI is 13300 nM.

Question: What about the GI50 (NCI-H226 lung) of the same compound?
Answer: Its GI50 is 2140 nM.

Question: What about the TGI (NCI-H226 lung) of the same compound?
Answer: The TGI was 5740 nM.

Question: What about the GI50 (OVCAR-8 ovarian) of the same compound?
Answer: The GI50 was 2250 nM.

Question: What about the TGI (OVCAR-8 ovarian) of the same compound?
Answer: The TGI was 5910 nM.

Question: And the GI50 (HT29 colon)?
Answer: Its GI50 is 2020 nM.

Question: And the TGI (HT29 colon)?
Answer: The TGI was 7080 nM.

Question: What about the GI50 (RXF 393 renal) of the same compound?
Answer: The GI50 was 1450 nM.

Question: And the TGI (RXF 393 renal)?
Answer: The TGI was 3000 nM.

Question: And the GI50 (HL-60(TB) leukemia)?
Answer: Its GI50 is 2290 nM.

Question: And the TGI (HL-60(TB) leukemia)?
Answer: Its TGI is 5240 nM.

Question: And the GI50 (KM12 colon)?
Answer: Its GI50 is 3080 nM.

Question: And the TGI (KM12 colon)?
Answer: The TGI was 11300 nM.
